Laboratory results as given in US20240075087A1, “COMPOSITIONS AND METHODS COMPRISING HEMP EXTRACT FOR THE TREATMENT OF ANIMALS IN NEED” (Portland Technology Holdings LLC, priority 2021, published 2024).

Legend:
D17 cells [1] = assay: Trypan blue exclusion assay, D17; assay type: cell-based, canine; conditions: 48 hours, vehicle control 5±1%
Experimental: The trypan blue exclusion assay is performed on canine primary dermal fibroblasts (CDF) because of the slow rate of proliferation and low metabolic activity of these normal canine cells, precluding productive MTT assays. The effects of CBD treatments are compared with the results obtained on the 17-71, CMT12 and D17 cell lines for comparative purposes. For the CDF cells, applied cell extracellular matrix (ABM) is applied overnight to 24-well tissue culture-treated plates (Applied Biological Materials [ABM], Richmond, BC, Canada). For all cell lines, cells are plated at a density of 5×10^3 cells per well and incubated until 60% confluent before treatment with methanol vehicle control, 3.75, 7.5, and 15 μg/mL of CBD to cells for 48 hours. Cells are then trypsinized, collected and centrifuged at 1900 g for 10 minutes. With the exception of the 17-71 cell line, cells are detached with Accumax (Invitrogen, Carlsbad, California). The cell pellet is resuspended in 0.1% trypan blue (Sigma Aldrich, St Louis, Missouri) in PBS solution, loaded on a Cell Countess disposable cell counting slide with automatic counting of all positively stained cells in the Countess II Cell Counter under identical settings for each cell line (Invitrogen; ThermoFisher Scientific, Carlsbad, California) using the same parameters for each cell line. All treatments are performed in triplicate and the percent of viable cells are averaged.

17-71 cell line = assay: Annexin V-FITC apoptosis assay, 17-71; assay type: cell-based, canine; conditions: 15 μg/mL CBD, VC 10.1±0.4%
Experimental: (§1) Apoptosis after 4 and 8 hours treatment is measured using Annexin-V staining (Invitrogen Annexin V-FITC staining kit, Carlsbad, California). Briefly, cells are detached with Accumax (Innovative Cell Technologies, San Diego, California), collected and centrifuged for 10 m at 1000 g at 4° C. The pellet is washed once with PBS before resuspension in Annexin Binding Buffer (ABB; 10 mM HEPES, 140 mM NaCl, 2.5 mM CaCl2, pH 7.4) at a density of approximately 1×10^6 cell/mL. […] After the incubation, ABB is added to the cell suspension and kept on ice until fluorescence is measured with the BD FACScalibur flow cytometer using an argon laser (BD Biosciences, Ashland, Oregon). Ten thousand events are collected per sample. Analysis is performed with the FlowJo software (Version 10.7.1. Becton, Dickinson, Ashland, Oregon) by first gating based on the forward- and side-scatter characteristics for each cell line followed by Annexin V-FITC positive cells. Negative fluorescence controls are unstained cells. Three independent replicates are examined for each treatment.

[2] = Single-dose oral pharmacokinetics of CBD in healthy cats; assay type: in vivo; conditions: serum, single oral dose 2 mg/kg total CBD/CBDA
Experimental: The single-dose oral pharmacokinetics of CBD and an assessment of safety and adverse effects during 12-week administration using a hemp-based product in healthy dogs and cats were determined in this study. […] More details about this study can be found in “Deabold, K. A.; Schwark, W. S.; Wolf, L.; Wakshlag, J. J., Single Dose Pharmacokinetics and Preliminary Safety Assessment with Use of CBD-Rich Hemp Nutraceutical in Healthy Dogs and Cats, Animals 2019, 9, 832, DOI 10.3390/ani9100832,” which is incorporated herein by reference in its entirety.

D17 cells [3] = assay: Annexin V-FITC apoptosis assay, D17; assay type: cell-based, canine; conditions: 15 μg/mL CBD, 4 hours, VC 6.5±0.6%
Experimental: as §1

CYP2B11 = molecular target: T1, CYP2B11 (Canis lupus familiaris, UniProt P24460); assay: CYP2B11 activity inhibition in pooled dog liver microsomes
T1 sequence (P24460 1-494): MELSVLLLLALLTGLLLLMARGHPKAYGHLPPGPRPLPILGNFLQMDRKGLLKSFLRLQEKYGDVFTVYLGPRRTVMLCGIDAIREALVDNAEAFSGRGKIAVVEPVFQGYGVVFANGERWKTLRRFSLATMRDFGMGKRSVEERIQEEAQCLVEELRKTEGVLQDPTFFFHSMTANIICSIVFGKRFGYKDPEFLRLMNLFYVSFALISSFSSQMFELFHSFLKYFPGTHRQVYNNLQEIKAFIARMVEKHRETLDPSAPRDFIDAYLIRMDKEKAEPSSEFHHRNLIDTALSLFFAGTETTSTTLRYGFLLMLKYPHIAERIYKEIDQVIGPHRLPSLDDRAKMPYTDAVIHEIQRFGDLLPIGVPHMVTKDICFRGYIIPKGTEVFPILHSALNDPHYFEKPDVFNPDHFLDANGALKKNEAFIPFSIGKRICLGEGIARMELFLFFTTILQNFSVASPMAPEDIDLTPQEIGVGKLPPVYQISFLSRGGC
Experimental: Inhibition potency (i.e. IC50) is determined by measuring the decrement in metabolism of P450-specific marker activities in pooled dog liver microsomes with increasing concentrations of CBD, CBDA, and hemp extracts. P450-specific markers include bupropion 6-hydroxylation (CYP2B11), dextromethorphan 0-demethylation (CYP2D15) and omeprazole sulfoxidation (CYP3A12). IC50 values are determined both with and without preincubation of liver microsomes with potential inhibitor to evaluate whether there is mechanism-based time-dependent inhibition.
The following parameters are assessed: (1) the rates of CBD and CBDA metabolism by dog liver microsomes and by 11 recombinant canine P450 enzymes; (2) the predicted percent contribution of each P450 to total CBD and CBDA metabolism in dog liver; and (3) IC50 values for inhibition of CYP2B11, CYP2D15 and CYP3A12 metabolism in dog liver, both with and without inhibitor preincubation.
FIGS. 13-15 show activity assays for CYP3A12 (FIGS. 13A and 13B), CYP2B11 (FIGS. 14A and 14B), and CYP2D15 (FIGS. 15A and 15B). Assays using either no preincubation (FIGS. 13A, 14A, and 15A) or 20 minutes of preincubation (FIGS. 13B, 14B, and 15B) were performed.

Structure (SMILES): C=C(C)[C@@H]1CCC(C)=C[C@H]1c1c(O)cc(CCCCC)cc1O [CBD, cannabidiol]
- percent trypan blue positive cells (D17 cells [1]; 3.75 μg/mL CBD): 4±2%
- percent trypan blue positive cells (D17 cells [1]; 7.5 μg/mL CBD): 5±2%
- percent trypan blue positive cells (D17 cells [1]; 15 μg/mL CBD): 35±4%
- Annexin V positive staining cells (17-71 cell line; 4 hours): 31.0±10.8%
- Annexin V positive staining cells (17-71 cell line; 8 hours): 79.0±6.1%
- AUC ([2]; read-out: area under the curve (AUC)): 164 ng·h/mL
- Cmax ([2]; read-out: mean maximum CBD concentration (Cmax)): 43 ng/mL
- Tmax ([2]; read-out: time to maximal concentration (Tmax)): 2 h
- Annexin V positive staining cells (D17 cells [3]): 9.4±1.8%
- IC50 (CYP2B11): < 1000 nM
- time-dependent inhibition (TDI) (CYP2B11; CYP2B11, no preincubation vs 20 min preincubation, 10 μM): showed time-dependent inhibition (TDI)
